Data taken from PMC7647111, “Antileishmanial compounds from Connarus suberosus: Metabolomics, isolation and mechanism of action” (PLoS ONE, 2020).
Values joined by “and” are separate entries in the source; they are usually repeats but may differ in a detail not shown here. Equal values may be shown once.

Columns and labels:
[1] = test system: L. infantum promastigotes; assay: Antiproliferation assay: L. infantum promastigotes (72 h), MTT; format: cell-based, Leishmania infantum (MCAN/BR/2008/1112); details: Leishmania infantum, 72 h, 72 h exposure
Experimental: (§1) Leishmania amazonensis promastigotes (IFLA/BR/1967/PH8) for the 24 h exposure test were cultivated in RPMI 1640, supplemented with 20% v/v heat inactivated fetal bovine serum (FBS) and incubated at 26°C until near the end of the log growth phase. Leishmania amazonensis (IFLA/BR/1967/PH8) and L. infantum (MCAN/BR/2008/1112) promastigotes used in the 72 h exposure test were cultivated in Warren’s medium (containing brain heart infusion- BHI plus hemin and folic acid), supplemented with 10% FBS, 0.1% of the antibiotics: 100 UI/mL penicillin G and 0.1 mg/mL streptomycin. Leishmania amazonensis (IFLA/BR/1967/PH8) transfected with the red fluorescent protein (RFP) gene was cultured in M199 medium (containing 0.1 mmol/L adenine, 40 mmol/L hepes, 0.0005% hemin and 0.0002% biotin), supplemented with 10% FBS, and 0.1% of the antibiotic. Parasites were maintained at 25°C in a BOD incubator.
(§2) Extracts and isolated compounds were tested against L. amazonensis promastigotes (IFLA/BR/1967/PH8 strain - 2x10^5 cells/well) and L. infantum promastigotes (MCAN/BR/2008/1112 strain - 3x10^5 cells/well). The samples were solubilized in DMSO (<1%), serially diluted (100 μg/mL to 1.56 μg/mL) and tested in a 96-well plate to obtain a dose-response curve. Miltefosine and DMSO were used as positive and negative controls, respectively. After 72 h, 10 μL of 3-(4,5-dimethylthiazol-2-yl)-2,5-diphenyl tetrazolium bromide (5 mg/mL—MTT, Sigma-Aldrich) solution was added to each well and the plate returned to the incubator for an additional 4 h. To halt the reaction, 100 μL acidified isopropanol was added to each well. Plates were read at 570 nm in a microplate reader (Multiskan MS, LabSystems Oy, Helsinki, Finland).

[2] = test system: L. amazonensis promastigotes; assay: Cell membrane integrity (propidium iodide); format: cell-based, Leishmania amazonensis; details: 24 h; 2 at 33.8 μM, 3 at 11.4 μM
Experimental: Plates were incubated with propidium iodide (PI) (1.0 μg/mL—Sigma-Aldrich, USA, St. Louis, MO, USA) for 15 min in the dark at RT. Fluorescence was measured using a spectrofluorometer (FLx800, BioTek Instruments, Inc., Winooski, VT, USA) with 540/600 nm excitation/emission. Parasites heated at 65 °C were used as the positive control.

[3] = test system: L. amazonensis promastigotes; assay: Transmission electron microscopy (TEM); format: cell-based, Leishmania amazonensis; details: 11.4 μM, 24 h
Experimental: Leishmania amazonensis promastigotes (10^7 cells/mL) were treated with compound 3 (11.4 μM) or incubated with controls (medium alone or medium plus 0.01% DMSO) for 24 h at 26°C. The parasites were subsequently washed in PBS, fixed in 2.5% glutaraldehyde (in 0.1 M sodium cacodylate buffer) at pH 7.2 for 45 min at room temperature. After fixation, the specimens were washed three times successively with 0.1 M sodium cacodylate buffer, and postfixed in 1% osmium tetroxide, 0.8% potassium ferricyanide, and 5 mM of the CaCl2 in 0.1 M of the sodium cacodylate buffer (0.1 M, pH 7.2). Dehydration was performed in acetone, followed by the embedding resin (Spur, Sigma-Aldrich®). Ultrathin sections were contrasted with uranyl acetate and lead citrate and observed under a transmission electron microscope (JEOL 1011).

Cytotoxicity assay (MTT) = format: cell-based, BALB/c mice; details: female, BALB/c, mouse, murine peritoneal macrophages; 72 h exposure
Experimental: Female BALB/c mice pre-inoculated with 3% thioglycollate medium were used to obtain macrophages from the peritoneal cavity. Peritoneal exudate was collected 72 h post-inoculation using cold Hank´s Balanced Salt Solution and the assay performed as previously reported. Briefly, peritoneal macrophages in RPMI 1640 medium were transferred to a 96-well plate (2x10^5 cells/well) and incubated at 37°C in 5% CO2 for 24 h to allow adhesion. Samples were serially diluted (100 μg/mL to 0.78 μg/mL), added to the plate with the cells and incubated under the same conditions for 72 h. MTT (10 μL/well) was subsequently added and the plates re-incubated for a further 2 h. To halt the reaction, 100 μL of acidified isopropanol was added to each well. The plate was then read at 570 nm in a microplate reader (Multiskan MS, LabSystems Oy, Helsinki, Finland).

[4] = test system: L. amazonensis promastigotes; assay: Mitochondrial membrane potential (MitoTracker); format: cell-based, Leishmania amazonensis; details: 24 h; 2 at 33.8 μM, 3 at 11.4 μM; FCCP 5.0 μM for 10 min
Experimental: After 24 h of incubation at 25°C, the parasite concentration was adjusted to 5x10^6 cells/mL and stained with 500 nM MitoTracker (Invitrogen, Eugene, OR, USA) in the dark for 40 min at 37°C. After washing twice with PBS, samples were transferred in triplicate to a black 96-well plate, and fluorescence measured in a spectrofluorometer (FLx800, BioTek Instruments, Inc., Winooski, VT, USA) at 540/600 nm excitation/emission. […] Louis, MO, USA) for 10 min were used to obtain maximal mitochondrial depolarization (positive control).

[5] = test system: L. amazonensis promastigotes; assay: Antiproliferation assay: L. amazonensis promastigotes (72 h), MTT; format: cell-based, Leishmania amazonensis (IFLA/BR/1967/PH8); details: Leishmania amazonensis; 72 h exposure
Experimental: as §1, §2

[6] = test system: L. amazonensis promastigotes; assay: Reactive oxygen species (ROS) detection (H2DCFDA); format: cell-based, Leishmania amazonensis; details: 24 h; 2 at 33.8 μM, 3 at 11.4 μM
Experimental: Fluorescence intensity was detected using a fluorimetric microplate reader (FLx800, BioTek Instruments, Inc., Winooski, VT, USA), at 485/528 nm excitation/emission. Promastigotes incubated with miltefosine (44.2 μM) were used as a positive control.

C=C[C@@H](c1cc(CC=C(C)C)ccc1O)c1cc(CC=C(C)C)c(OC)cc1O [Compound 3, connarin]
IC50 [1]: 5.2 µg/mL and 13.3 µM
plasma membrane integrity (PI-positive parasites) [2]: did not interfere with plasma membrane permeation
ultrastructural modification (TEM) [3]: showed lipid bodies and the presence of vacuoles
CC50 at 72 h (Cytotoxicity assay (MTT)): 7.2 µg/mL and 18.3 µM
reduction in mitochondrial membrane potential (ΔΨm) [4]: 26.5%
IC50 [5]: 4.5 µg/mL and 11.4 µM
ROS level [6]: no alteration in the ROS level
